The text below walks through data of ChEMBL document CHEMBL1201862, “PubChem BioAssay data set” (2004).

The source made the active and inactive calls.

The subject of series [1] is HEK293. Put plainly: cells. Conditions: Homo sapiens.
Series [2] relates to HEK293. In words: cells. Conditions: Homo sapiens. This is another data set of the same source.
The target of series [3] is T1, Cytochrome P450 2D6 (Homo sapiens, UniProt P10635).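 Note: CYP2D6 member of a cytochrome P450 panel assay.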
The target of a further series is T2, Cytochrome P450 1A2 (Homo sapiens, UniProt P05177).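 Note: PubChem cytochrome P450 panel assay, CYP1A2 panel member.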
T2 sequence (P05177 whole entry): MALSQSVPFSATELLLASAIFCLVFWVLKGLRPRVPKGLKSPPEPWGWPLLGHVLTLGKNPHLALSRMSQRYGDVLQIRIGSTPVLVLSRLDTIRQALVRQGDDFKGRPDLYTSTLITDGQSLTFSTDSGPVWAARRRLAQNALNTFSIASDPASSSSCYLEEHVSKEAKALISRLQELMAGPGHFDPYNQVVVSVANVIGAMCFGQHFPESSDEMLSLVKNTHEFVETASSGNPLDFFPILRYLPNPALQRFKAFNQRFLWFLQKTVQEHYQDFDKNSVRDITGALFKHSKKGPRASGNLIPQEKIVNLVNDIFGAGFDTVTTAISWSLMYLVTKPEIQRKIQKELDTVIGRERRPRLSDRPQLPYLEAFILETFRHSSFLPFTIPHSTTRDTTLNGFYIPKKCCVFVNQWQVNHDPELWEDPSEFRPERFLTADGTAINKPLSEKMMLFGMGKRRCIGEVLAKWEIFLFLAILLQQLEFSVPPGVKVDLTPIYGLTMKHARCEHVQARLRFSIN

In another series the target is Cytochrome P450 2C9 (Homo sapiens, UniProt P11712).
Series [4] can be described thus: viability loss of HMLE_sh_eGFP cells – cell-based, luminescence, counter-screen for HMLE_sh_ECad selective toxicity project, dose response (AID 463074).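 Note: HMLE human mammary epithelial cells expressing control shRNA against eGFP.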 Format: functional, Homo sapiens. (In general: The purpose of a counterscreen is to sort out artefacts and off-target activity.)
A short description of series [5]: Luminescence Cell-Based Dose Retest to Confirm Inhibitors of Cancer Stem Cells. [Related pubchem assays (depositor defined):AID2717, AID2721]. Format: functional. Conditions: Homo sapiens.
Series [6] deals with HEK293. Put plainly: NOD2 signaling inhibitors in MDP-stimulated cells, cell-based, uHTS, luminescence (AID 2001). Format: functional. Conditions: Homo sapiens.
The subject of series [7] is HEK293. Put plainly: cells. Conditions: Homo sapiens. Type of series: functional, cell-based.
Series [8] concerns HEK293. Put plainly: cells. Format: functional, cell-based. Conditions: Homo sapiens. This is another data set of the same source.
Series [9] deals with HEK293. In words: inhibition of NOD1-driven NF-kB reporter – cell-based, luminescence, uHTS, primary screen (AID 1578). Format: functional. Conditions: Homo sapiens.
Series [10] deals with HEK293. Put plainly: cells. Type of series: functional, cell-based. Conditions: Homo sapiens. The source holds these as a separate data set.
The subject of series [11] is HEK293. Put plainly: cells. Conditions: Homo sapiens. This is another data set of the same source.
The target in series [12] is T3, Alkaline phosphatase, tissue-nonspecific isozyme (Homo sapiens, UniProt P05186).
T3 sequence (P05186 whole entry): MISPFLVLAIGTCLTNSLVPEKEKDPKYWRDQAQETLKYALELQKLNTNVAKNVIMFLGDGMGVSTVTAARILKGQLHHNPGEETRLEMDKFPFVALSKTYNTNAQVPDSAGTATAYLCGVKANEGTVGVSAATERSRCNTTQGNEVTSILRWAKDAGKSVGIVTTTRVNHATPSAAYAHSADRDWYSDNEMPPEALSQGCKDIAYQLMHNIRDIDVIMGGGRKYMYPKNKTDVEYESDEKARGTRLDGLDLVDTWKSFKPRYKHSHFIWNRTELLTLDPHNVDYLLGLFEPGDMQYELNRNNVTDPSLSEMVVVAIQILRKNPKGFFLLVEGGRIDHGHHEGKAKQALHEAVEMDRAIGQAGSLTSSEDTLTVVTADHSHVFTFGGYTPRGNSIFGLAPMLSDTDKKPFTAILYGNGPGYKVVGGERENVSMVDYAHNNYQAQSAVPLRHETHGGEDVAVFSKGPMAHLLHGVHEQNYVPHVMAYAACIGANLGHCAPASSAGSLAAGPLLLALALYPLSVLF
Put plainly: activation of tissue-nonspecific alkaline phosphatase – biochemical, TNAP isozyme, human IAP uHTS hits, selectivity assay for human IAP activator project, dose response (AID 488886).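 Note: potency of compounds raising TNAP activity as a selectivity check on IAP activators.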 Format: functional.

Series [13] deals with Intestinal-type alkaline phosphatase (Mus musculus, UniProt P24822). Put plainly: PubChem AID 488874. Format: functional.
Series [14] deals with T4, Intestinal-type alkaline phosphatase (Homo sapiens, UniProt P09923). Put plainly: activation of human intestinal alkaline phosphatase – biochemical, luminescent, uHTS hits, set 2, dose response (AID 488817).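 Note: potency of activators that raise enzyme activity.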 Type of series: functional.
For series [15], the target named is T4, Intestinal-type alkaline phosphatase. In words: human intestinal alkaline phosphatase activators, dose response, biochemical, luminescence, uHTS hits (AID 463120). Type of series: functional.
Series [16] deals with T1, Cytochrome P450 2D6. The source holds these as a separate data set.
Another series has as its target Tumor necrosis factor (Homo sapiens, UniProt P01375). Put plainly: analog potency on TNFa NF-kB signaling – cell-based, revised, SAR follow-up (AID 2337). Format: functional.
The target in series [17] is Nucleotide-binding oligomerization domain-containing protein 1 (Homo sapiens, UniProt Q9Y239). Put plainly: blockers of NOD1 pathway activity – revised, SAR follow-up (AID 2333). Format: functional.
Series [18] concerns the target Lysine-specific demethylase 4C (Homo sapiens, UniProt Q9H3R0). In words: inhibition of JMJD2C H3K9me3 demethylation – biochemical, DELFIA europium, cherry-picked samples, dose response (AID 488835). Format: functional.
In series [19] the test system is Vero. Put plainly: cells. Type of series: functional. Conditions: Chlorocebus sabaeus.
Series [20] is described as follows: reduction of Shn3 3'UTR-driven luciferase in osteoblasts – cell-based, Clone20 osteoblasts, firefly luciferase, cherry-picked, dose response (AID 624132).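 Note: firefly luciferase luminescence from reporter carrying the Shn3 3'UTR in osteoblasts.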 Format: functional.
The test system of series [21] is Vero. In words: cells. Format: functional, cell-based. Conditions: Chlorocebus sabaeus.
Series [22] in a line: non-specific 3'UTR reporter inhibition in Clone20-Shn3RL – cell-based, Renilla luciferase, cherry-picked, counter-screen for Shn3 inhibitor project, dose response (AID 624133). Format: functional.
Series [23] is described as follows: loss of viability in HepG2 cells – cell-based, CellTiter-Glo, cherry-picked, cytotoxicity control for Shn3 inhibitor project, dose response (AID 624134). Format: functional.
Series [24] is described as follows: NIH-3T3 fibroblast cytotoxicity, dose response, cytotoxicity control, cell-based, fluorescence, Alamar Blue, secondary assay (AID 2327).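 Note: NIH-3T3 mouse fibroblasts cultured with fluconazole at 8 µg/mL.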 Type of series: functional.
The nature of series [25]: fluconazole-exposed Candida albicans growth modulators – fluorescence, retest, confirmation (AID 2467). Type of series: functional, cell-based.
The nature of series [26]: HEK-293T viability loss after treatment – luminescence, T-cell screen hits, cytotoxicity control for TCR NF-kB inhibitor project, dose response (AID 489026).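 Note: cells exposed to compound about 14 hours before the viability readout.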 Format: functional, cell-based.
For series [27], the system named is BJ. In words: BJ-TERT fibroblast viability loss – cell-based, RAS-independent, luminescence, dose response (AID 1933). Type of series: functional. Conditions: Homo sapiens.
The nature of series [28]: DRD fibroblast viability loss – cell-based, non-viral oncogenic, luminescence, dose response (AID 1934). Conditions: Homo sapiens. Format: functional.
Series [29] deals with BJ. In words: BJ-TERT-LT-ST fibroblast viability loss – cell-based, RAS-independent, luminescence, dose response (AID 1935).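 Note: BJ fibroblasts immortalized with TERT plus LT and ST oncogenes.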 Format: functional. Conditions: Homo sapiens.
The test system of the next series is INS1. Put plainly: INS-1E survival protection against cytokine death – cell-based, luminescence, retest, dose response (AID 449756).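 Note: cell death triggered by IL-1 beta plus TNF-alpha plus IFN-gamma mixture; protective hits raise ATP signal compared with cytokine alone wells.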 Format: functional. Conditions: Rattus norvegicus.
Series [30] concerns BJ. In words: growth inhibition of engineered Ras-driven BJ cells – cell-based, alamar blue fluorescence, cherrypicked samples, dose response (AID 2631).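 Note: confirmatory dose-response assay in RAS-dependent BJ fibroblasts engineered with TERT, LT and ST, with cytotoxicity read by fluorescence.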 Format: functional. Conditions: Homo sapiens. For orientation: The colour change of resazurin is a common sign of viable cells or microbes.
In series [31] the test system is BJ. Put plainly: cells. Format: functional, cell-based. Conditions: Homo sapiens.
Series [32] in a line: cells. Type of series: functional, cell-based.
A short description of series [33]: cells. Format: functional, cell-based. The source holds these as a separate data set.

A word on the EC50: it is the concentration needed to bring the measured effect to its halfway point. As a reminder, the AC50 is the concentration giving half of the maximal activity seen. A word on the IC50: it is the concentration needed to halve the response being measured. Usually CC50 stands for the concentration giving 50% cytotoxicity.

T4 sequence (P09923 whole entry): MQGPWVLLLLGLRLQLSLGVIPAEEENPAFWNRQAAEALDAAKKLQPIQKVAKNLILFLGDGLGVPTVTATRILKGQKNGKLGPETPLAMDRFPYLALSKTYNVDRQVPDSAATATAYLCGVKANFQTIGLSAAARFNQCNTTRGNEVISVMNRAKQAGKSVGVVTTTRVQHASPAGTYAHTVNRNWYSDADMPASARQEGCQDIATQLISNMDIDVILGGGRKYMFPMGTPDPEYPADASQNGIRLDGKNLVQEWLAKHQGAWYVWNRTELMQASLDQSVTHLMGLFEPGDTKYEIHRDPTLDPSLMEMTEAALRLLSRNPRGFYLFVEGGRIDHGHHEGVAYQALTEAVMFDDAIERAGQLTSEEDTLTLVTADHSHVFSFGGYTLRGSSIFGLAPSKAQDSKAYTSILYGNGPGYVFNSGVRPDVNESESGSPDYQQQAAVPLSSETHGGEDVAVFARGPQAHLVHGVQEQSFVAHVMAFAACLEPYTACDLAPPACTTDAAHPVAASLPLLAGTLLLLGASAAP
T1 sequence (P10635 whole entry): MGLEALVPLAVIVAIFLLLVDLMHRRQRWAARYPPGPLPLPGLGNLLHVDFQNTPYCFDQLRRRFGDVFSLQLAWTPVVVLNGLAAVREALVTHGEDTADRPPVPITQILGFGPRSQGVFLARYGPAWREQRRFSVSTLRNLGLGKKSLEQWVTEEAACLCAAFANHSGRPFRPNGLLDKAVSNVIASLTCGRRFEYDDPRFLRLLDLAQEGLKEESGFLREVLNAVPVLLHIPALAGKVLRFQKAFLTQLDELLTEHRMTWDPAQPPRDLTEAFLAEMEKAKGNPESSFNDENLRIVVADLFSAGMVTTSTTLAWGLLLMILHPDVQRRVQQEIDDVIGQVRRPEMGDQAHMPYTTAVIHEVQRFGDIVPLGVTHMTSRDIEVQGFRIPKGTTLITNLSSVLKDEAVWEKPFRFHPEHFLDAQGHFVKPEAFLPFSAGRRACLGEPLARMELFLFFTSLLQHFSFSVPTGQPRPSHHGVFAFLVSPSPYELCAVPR
Chain of Intestinal-type alkaline phosphatase (Mus musculus, UniProt P24822) (P24822 whole entry): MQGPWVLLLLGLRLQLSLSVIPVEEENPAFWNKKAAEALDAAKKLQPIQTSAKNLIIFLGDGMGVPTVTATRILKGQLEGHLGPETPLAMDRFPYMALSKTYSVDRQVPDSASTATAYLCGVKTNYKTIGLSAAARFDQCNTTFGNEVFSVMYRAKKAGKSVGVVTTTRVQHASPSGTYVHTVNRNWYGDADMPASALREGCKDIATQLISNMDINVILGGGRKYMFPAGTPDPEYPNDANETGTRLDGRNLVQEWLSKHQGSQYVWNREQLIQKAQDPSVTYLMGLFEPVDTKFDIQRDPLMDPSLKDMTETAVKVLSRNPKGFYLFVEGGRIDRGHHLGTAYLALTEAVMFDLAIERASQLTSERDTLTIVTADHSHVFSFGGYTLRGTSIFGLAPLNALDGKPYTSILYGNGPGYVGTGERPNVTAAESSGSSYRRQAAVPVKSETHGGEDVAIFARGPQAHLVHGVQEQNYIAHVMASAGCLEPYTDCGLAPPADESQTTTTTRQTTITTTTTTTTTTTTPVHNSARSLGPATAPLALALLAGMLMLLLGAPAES
Chain of Cytochrome P450 2C9 (P11712 whole entry): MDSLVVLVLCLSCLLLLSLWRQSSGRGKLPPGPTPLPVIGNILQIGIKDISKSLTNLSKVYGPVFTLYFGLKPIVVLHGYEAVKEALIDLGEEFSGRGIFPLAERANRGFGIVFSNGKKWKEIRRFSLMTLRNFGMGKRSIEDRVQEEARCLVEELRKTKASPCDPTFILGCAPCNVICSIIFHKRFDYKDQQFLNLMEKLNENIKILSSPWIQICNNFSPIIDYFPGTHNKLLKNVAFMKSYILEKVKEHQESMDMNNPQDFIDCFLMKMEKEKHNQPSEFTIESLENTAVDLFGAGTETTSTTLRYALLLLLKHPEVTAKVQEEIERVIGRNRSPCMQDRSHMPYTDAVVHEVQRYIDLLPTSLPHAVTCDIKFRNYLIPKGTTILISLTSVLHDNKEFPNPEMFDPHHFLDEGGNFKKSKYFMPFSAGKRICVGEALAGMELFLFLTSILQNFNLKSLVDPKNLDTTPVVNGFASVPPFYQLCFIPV
Chain of Tumor necrosis factor (P01375 whole entry, the tested form may be a part): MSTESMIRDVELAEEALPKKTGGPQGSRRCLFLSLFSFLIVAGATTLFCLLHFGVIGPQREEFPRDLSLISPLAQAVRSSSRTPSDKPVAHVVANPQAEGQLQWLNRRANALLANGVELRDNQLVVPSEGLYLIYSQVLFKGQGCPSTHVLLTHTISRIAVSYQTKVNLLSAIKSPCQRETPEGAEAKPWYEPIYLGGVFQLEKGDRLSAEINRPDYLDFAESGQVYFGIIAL
Chain of Lysine-specific demethylase 4C (Q9H3R0 whole entry): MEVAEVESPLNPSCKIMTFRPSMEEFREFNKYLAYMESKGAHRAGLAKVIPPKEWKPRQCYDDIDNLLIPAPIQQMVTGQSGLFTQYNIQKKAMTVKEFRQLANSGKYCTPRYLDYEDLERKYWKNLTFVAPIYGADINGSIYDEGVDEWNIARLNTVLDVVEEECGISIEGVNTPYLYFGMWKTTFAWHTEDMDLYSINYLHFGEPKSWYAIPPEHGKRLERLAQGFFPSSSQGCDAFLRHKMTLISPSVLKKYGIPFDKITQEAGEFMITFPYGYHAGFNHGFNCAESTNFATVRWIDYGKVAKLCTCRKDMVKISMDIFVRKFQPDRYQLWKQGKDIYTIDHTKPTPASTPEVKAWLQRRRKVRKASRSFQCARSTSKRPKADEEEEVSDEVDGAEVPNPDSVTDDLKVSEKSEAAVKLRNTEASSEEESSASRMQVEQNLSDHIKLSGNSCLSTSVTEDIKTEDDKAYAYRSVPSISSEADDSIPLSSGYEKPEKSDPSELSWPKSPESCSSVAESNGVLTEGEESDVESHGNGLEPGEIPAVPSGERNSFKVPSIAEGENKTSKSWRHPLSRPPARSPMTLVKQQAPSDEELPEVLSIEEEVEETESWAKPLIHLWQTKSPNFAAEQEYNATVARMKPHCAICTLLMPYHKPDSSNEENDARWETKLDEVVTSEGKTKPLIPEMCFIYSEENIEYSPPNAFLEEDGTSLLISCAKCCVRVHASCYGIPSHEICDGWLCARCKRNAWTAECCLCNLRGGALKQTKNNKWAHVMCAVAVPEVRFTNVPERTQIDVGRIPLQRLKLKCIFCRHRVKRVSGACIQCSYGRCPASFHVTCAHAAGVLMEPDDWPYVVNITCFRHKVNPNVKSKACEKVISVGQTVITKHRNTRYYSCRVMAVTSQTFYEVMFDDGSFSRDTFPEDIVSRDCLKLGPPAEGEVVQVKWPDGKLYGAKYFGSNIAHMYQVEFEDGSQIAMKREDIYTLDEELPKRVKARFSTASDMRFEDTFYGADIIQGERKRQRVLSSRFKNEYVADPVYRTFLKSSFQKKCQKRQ
Chain of Nucleotide-binding oligomerization domain-containing protein 1 (Q9Y239 whole entry, the tested form may be a part): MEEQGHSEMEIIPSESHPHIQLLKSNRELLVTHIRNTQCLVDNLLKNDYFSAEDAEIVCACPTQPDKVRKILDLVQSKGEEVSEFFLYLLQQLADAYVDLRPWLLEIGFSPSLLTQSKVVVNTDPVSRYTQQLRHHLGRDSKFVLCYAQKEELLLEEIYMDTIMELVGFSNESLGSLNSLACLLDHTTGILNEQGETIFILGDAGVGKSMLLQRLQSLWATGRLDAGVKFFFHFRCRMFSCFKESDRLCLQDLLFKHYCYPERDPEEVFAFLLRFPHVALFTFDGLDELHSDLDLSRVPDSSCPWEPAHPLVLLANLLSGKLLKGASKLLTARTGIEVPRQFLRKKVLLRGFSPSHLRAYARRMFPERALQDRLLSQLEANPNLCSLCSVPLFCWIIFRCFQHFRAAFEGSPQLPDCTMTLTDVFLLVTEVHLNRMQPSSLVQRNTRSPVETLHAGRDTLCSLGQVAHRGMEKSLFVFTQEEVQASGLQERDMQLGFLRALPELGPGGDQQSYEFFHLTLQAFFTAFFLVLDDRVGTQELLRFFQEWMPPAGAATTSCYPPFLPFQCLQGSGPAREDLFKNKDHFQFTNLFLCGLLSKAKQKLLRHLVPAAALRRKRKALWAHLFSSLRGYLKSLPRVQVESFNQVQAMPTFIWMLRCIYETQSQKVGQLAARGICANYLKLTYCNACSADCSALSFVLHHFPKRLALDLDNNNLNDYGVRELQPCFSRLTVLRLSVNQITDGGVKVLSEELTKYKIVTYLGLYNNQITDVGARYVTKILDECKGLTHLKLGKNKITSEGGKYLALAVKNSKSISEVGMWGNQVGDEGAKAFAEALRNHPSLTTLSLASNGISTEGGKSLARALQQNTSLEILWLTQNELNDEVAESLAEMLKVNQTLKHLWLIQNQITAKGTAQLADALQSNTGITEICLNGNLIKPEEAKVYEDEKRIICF

For the molecule `C=CCn1c(SC(C)C(=O)NCc2ccc3c(c2)OCO3)nc2scc(-c3ccccc3)c2c1=O` (stereo not given), the EC50 with HEK293 [1] and in the series with HEK293 [2] was > 59.7 µM (inactive) each time. For the same molecule, the AC50 at Cytochrome P450 2D6 [3] is 3.16 µM (inconclusive).
`C=C[C@H]1CN2CC[C@@H]1C[C@H]2[C@@H](O)c1ccnc2ccc(OC)cc12.Cl.O`: the AC50 result at Cytochrome P450 1A2 and on Cytochrome P450 2C9 was “inactive” throughout.
On to `C=CCc1cc(Cl)ccc1OCCOCCNC(C)CC` (stereo not given), for which the AC50 in series [4] was 34.5 µM (active); in series [5] it was 21.5 µM (active).
`Cc1ccc(CSc2nc(O)c(C#N)c(-c3ccccc3)n2)cc1`: the IC50 in the series with HEK293 [6] is 12.9 µM (inactive); in the series on HEK293 [7], > 20 µM (inactive); with HEK293 [8], > 20 µM (inactive); in the series on HEK293 [10], > 20 µM (inactive); in the series with HEK293 [11], > 20 µM (inactive). For the same molecule, the EC50 with HEK293 [9] was 9.39 µM (active).
`COc1cc(NC(=O)c2ccnc(N)c2)cc(C(=O)Nc2cccc(C(F)(F)F)c2)c1`: the AC50 was 39.5 µM (active) in series [4] and 17.4 µM (active) in series [5].
For `Cc1ccsc1C(=O)NNC(=S)NC1CCCCC1`, the figures for the EC50 in series [12], in series [14] and in series [15] were 13.9 µM (active), 15 µM (active) and 10.3 µM (active), respectively. The IC50 in series [13] is 56.7 µM (active).
For `COc1cccc2c1C(=O)c1c(O)c3c(c(O)c1C2=O)C[C@](O)(C(C)=O)C[C@H]3O[C@@H]1C[C@H](N)[C@H](O)[C@H](C)O1`, the AC50 entry on Cytochrome P450 2D6 [16] and at Cytochrome P450 1A2 was “inactive” in each case.
For the molecule `CSc1ccc(NC(=O)c2ccc(CN3CCc4ccccc4C3)cc2)cc1`, the half-maximal inhibitory concentration (IC50) at Tumor necrosis factor is 0.372 µM (active); in [17], 0.243 µM (active); in the series on HEK293 [11], 7.86 µM (active).
As to `CCN(C[C@H]1N[C@@](CC)(C(=O)OC)[C@H]2C(=O)N(Cc3ccccc3)C(=O)[C@@H]12)S(=O)(=O)c1ccc(C(C)(C)C)cc1`, the AC50 in series [18] is 42.6 µM (active).
Turning to `CCCCn1c(-c2nonc2NC(=O)c2ccccc2Cl)nc2ccccc21`, the CC50 in the series with Vero [19] is 11.8 µM (active). For the same molecule, the AC50 in [20] was 1.39 µM (active); in series [22], 1.11 µM (active); in [23], > 70 µM (inactive). The IC50 in the series with Vero [21] is 0.73 µM (active).
Consider `CCN(CC)c1ccc(/C=N/NC(=O)c2nnn(-c3nonc3N)c2C(C)C)c(O)c1`, for which the EC50 in [24] was 4 µM (active); in series [25], 0.401 µM (active); with BJ [27], 7.4 µM (inconclusive); in [12], 19 µM (active); in series [28], 8.09 µM (inconclusive); in the series with BJ [29], 6.05 µM (inconclusive). The EC50 was 0.199 µM (active) in the series on BJ [30]; 2.83 µM (active) in the series with BJ [31]; 5.38 µM (active) in the series “cells [32]”; > 350 µM (not active) in the series “cells [33]”; 20.6 µM (active) in [14]; 10.5 µM (active) in series [15]. In addition, the IC50 in series [26] is > 80 µM (inactive); in series [13] it was 78 µM (active). In addition, the AC50 in the series with INS1 was < 0.195 µM (active).
